Patent US20080113974A1, “Heterocyclic Oxime Compounds, A Process For Their Preparation And Pharmaceutical Compositions Containing Them” (LES LABORATOIRES SERVIER, priority 2005, published 2008)

Test system: ob/ob mouse
Assay: Antidiabetic and hypolipaemic effect in the ob/ob mouse
Type: in vivo
Conditions: dose of 3 mg/kg; for variation in body weight: four days, body weight measured daily
Procedure: The 10-week-old female ob/ob mouse (Harlan) is used for the in vivo tests. The animals are kept in a light-darkness cycle of 12 hours at 25° C. The mouse has a basal hyperglycaemia of 2 g/l. The animals are randomly selected with regard to their glycaemia to form groups of six. […] […] The control groups receive the solvents under the same conditions as the treated groups.
The activity of the products is evaluated by measuring glycaemia, triglycerides and insulinaemia 24 hours after the final administration and by measuring body weight daily.

[1] = twice per day for four days, 24 hours after the final administration

For `CCOC(Cc1ccc(OCCN2C(=O)COc3ccc(C(=NO)c4ccccc4)cc32)cc1)C(=O)O` (centres unmarked) [Example 11], the “variation in body weight” value was “insignificant variation”, the reduction in glycaemia [1] was 25% and the reduction in insulinaemia [1] was 22%. For the same molecule, the reduction in triglycerides [1] was 45%.

For `CN(CCOc1ccc(CC2SC(=O)NC2=O)cc1)c1ccccn1` (centres unmarked) [rosiglitazone, reference compound], the “variation in body weight” value was “significant increase”.
